Assays:
SK-HEP-1 cells = experiment: RT-qPCR after GH / GHR-antagonist treatment; type: cell-based, human; settings: 50 ng/mL GH, 3 days
Protocol: (§1) Following treatments, cells were lysed, and RNA extraction was performed using IBI Tri-isolate kit (IBI), following manufacturer's protocol. RT-qPCR was performed as described previously.
The inventors had previously shown that knock-down of GHR in turn strongly attenuates MET as well as HGF transcript levels in human melanoma. To verify this observation in another GHR expressing human cancer like HCC, the inventors analyzed the effects of GH and GHR-antagonist treatment on the expression of the oncogenic HGF-MET loop in human liver cancer cells. HepG2 and SK-HEP-1 cells were treated for 3 days with either 50 ng/mL GH (2.5 nM), or 50 nM GHR-antagonist, or both, and their RNA expressions were compared against untreated controls at basal levels (i.e. no drug treatment). No additional effect of added GH on the expression levels of HGF or MET in the liver cancer cell lines was observed, except a 2-fold increase in MET levels in SK-HEP-1 cells (FIG. 39). […] Irrespective of presence of added GH, the antagonist lowered HGF levels by >4-fold in Hep-G2 cells and up to 2-fold in SK-HEP-1 cells; while the MET levels were decreased by >2-fold in both Hep-G2 and SK-HEP-1 cells compared to the GH treated samples (FIG. 39). […]

HepG2 cells = experiment: RT-qPCR after GH / GHR-antagonist treatment; type: cell-based, human; settings: 3 days
Protocol: as §1
And so, the inventors performed a similar experiment with HepG2 and SK-HEP-1 human liver cancer cells, which have been extensively studied and known to express GHR, to verify this observation in human melanoma cells. In vitro, HepG2 cells were treated for 3 days with either 50 ng/mL GH (2.5 nM), or 50 nM […], or both GH and GHR-antagonist, and their RNA expressions were compared against untreated controls at basal condition (i.e. no drug treatment).
The inventors had previously shown that knock-down of GHR in turn strongly attenuates MET as well as HGF transcript levels in human melanoma. To verify this observation in another GHR expressing human cancer like HCC, the inventors analyzed the effects of GH and GHR-antagonist treatment on the expression of the oncogenic HGF-MET loop in human liver cancer cells. HepG2 and SK-HEP-1 cells were treated for 3 days with either 50 ng/mL GH (2.5 nM), or 50 nM GHR-antagonist, or both, and their RNA expressions were compared against untreated controls at basal levels (i.e. no drug treatment). No additional effect of added GH on the expression levels of HGF or MET in the liver cancer cell lines was observed, except a 2-fold increase in MET levels in SK-HEP-1 cells (FIG. 39). […] Irrespective of presence of added GH, the antagonist lowered HGF levels by >4-fold in Hep-G2 cells and up to 2-fold in SK-HEP-1 cells; while the MET levels were decreased by >2-fold in both Hep-G2 and SK-HEP-1 cells compared to the GH treated samples (FIG. 39). This observed nature of the suppressive effect of GHR-antagonist strongly indicates the existence of a autocrine/paracrine GH action in HCC, as the inventors had found stable GH expression in both Hep-G2 and SK-HEP-1 cells.

four melanoma cell lines = experiment: Cell proliferation / EC50 determination; settings: serum concentration in media 1%
Protocol: A 1% (w/v) resazurin (Sigma-Aldrich #R7017) solution in 1× PBS was made and filter-sterilized. The final concentration of resazurin in the assay was 0.004%. Inside the proliferating cells, mildly fluorescent blue resazurin is reduced to a bright pink fluorescent product called resorufin (stable for 4 hours), which allows for a quantitative measure of the percentage of proliferating cells. In all cases, cells were incubated at 37° C. in 5% CO2 for 45-60 min. for adequate sensitivity of detection. Briefly, cells were seeded at 10,000 cells/cm^2 into 96-well plates and transfected as described above. The resazurin assay was performed 60 hours after transfection (unless specified otherwise) and resorufin absorbance was measured at 570 nm (reference wavelength=600 nm) using Spectramax250 (Molecular Devices, Sunnyvale, Calif.) and SoftmaxPro software.
More specifically, SK-MEL-28 cells (FIG. 8A, panel 1), MALME-3M cells (FIG. 8A, panel 2), MDA-MB-435 cells (FIG. 8A, panel 3), and SK-MEL-5 cells (FIG. 8A, panel 4) were treated with increasing doses of hGH for 48 hr. and cell proliferation was estimated using a resazurin-based metabolic assay.
For treatment of melanoma cells, the following five anti-tumor compounds were obtained from the sources mentioned: cisplatin (Calbiochem #232120, Darmstadt, Germany), doxorubicin (Sigma Aldrich #D-1515, St. Louis, Mo.), oridonin (Sigma-Aldrich #O-9639, St. Louis, Mo.), Paclitaxel (Sigma-Aldrich #C-7191), and vemurafenib/PLX4032 (ApexBio #A-3004, Houston, Tex.). […] In the subsequent experiments, the following drug concentrations were used unless specified otherwise: cisplatin (0.5 μM), doxorubicin (10 nM), oridonin (0.5 μM), paclitaxel (1 nM), vemurafenib (2 nM). Treatments were performed for 24 hours starting 48 hours post-transfection with siRNA.

MALME-3M cells = experiment: Cell proliferation (resazurin) assay; type: cell-based, human; settings: 48 hr
Protocol: For hGH treatment, 16 hours after seeding (or 24 hours post-transfection), the cells were serum-starved for 2 hours in serum-free growth media, and hGH (phosphate buffered saline was used as control where applicable) was added at the noted concentrations (0-, 5-, 50-, and 150 ng/ml). Cells were subsequently incubated for 24 hours before evaluating RNA levels. Recombinant hGH was purchased from Antibodies Online (#ABIN2017921, Atlanta, Ga.).
On the other hand, a pronounced drop in proliferation levels in all the cell lines was seen when GHR was knocked down. […] Cell proliferation was estimated using resazurin-based metabolic assay. […] Averages of at least four independent experiments performed in quadruplicate were taken [*, p<0.05, Students t-test]. The results may indicate that human melanoma cells utilize GH-GHR interaction to drive aggressive tumor phenotypes.
To determine this, and referring now to FIGS. 35A-35D, changes in amounts of calcein retained inside cells following treatment with calcein-AM ester was analyzed by the fluorescence readout from intracellular calcein. Increased abundance of transporter pumps is reflected by decreased levels of intracellular calcein. […] Assays were performed 48 hr. post-transfection with either scr-siRNA or GHR-siRNA. […] SK-MEL-28 (FIG. 35C) and MALME-3M (FIG. 35D) cells were exposed to DMSO (vehicle), or 10 um cisplatin (Cis), or 5 nM paclitaxel (Pac) for 24 hr. Treatments were done 48 hr. post-transfection with either scr-siRNA (scr) or GHR-siRNA (GHR). Mean of three independent experiments performed in triplicate was taken. [*, p<0.05, Students t test, n=3]

In the case of “hGH: Recombinant human growth hormone, Antibodies Online #ABIN2017921”, the “increase in MET levels” value (SK-HEP-1 cells) is reported as 2 fold, the “RNA level of CDH1, the epithelial marker” value (HepG2 cells; 50 ng/mL GH) is reported as “downregulating” and the “RNA levels of mesenchymal marker vimentin” value (HepG2 cells; 50 ng/mL GH) is reported as “significantly upregulate”. For the same substance, the “levels of ABCC4 and of the transcription factor SPI-B” value (HepG2 cells; exogenous GH 50 ng/mL) was “markedly upregulated”, the “minimum hGH concentration for a significant difference in cell proliferation” value (four melanoma cell lines) was 50 ng/mL and the “Cell proliferation induced by hGH-excess (increase)” value (MALME-3M cells; 50 ng/ml hGH) was 248%. For the same substance, the increase in proliferation (MALME-3M cells; 150 ng/mL hGH) was “more than 300%”.

Source: patent US11473088B2, “Method of treating cancer and method of sensitizing cancer cells to the action of chemotherapeutic agents via growth hormone receptor antagonists or knock down” (Ohio University, priority 2016, dated 2022)
